Experimental findings from patent US12077503B2, “Substituted cyclic amides and their use as herbicides” (FMC CORPORATION, priority 2015, dated 2024) are described below.

Read-outs that look alike come from different tables or passages of the source.

Holding throughout (format): in vivo
Assay [1] has as its system pigweed (Amaranthus retroflexus). Put plainly: Test A postemergence. Particulars: Amaranthus retroflexus, post-emergence, 240 h; for pest or weed control at 125 g/ha: 125 g ai/ha. The procedure, abridged:
(§1)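 Seeded soil received test chemicals as a preemergence directed spray, and seedlings at one to two leaves, 2–10 cm tall, received them postemergence, in a non-phytotoxic, surfactant-containing solvent mixture. Pots were held in a greenhouse for approximately 10 d, then rated for injury from 0, no effect, to 100, complete control.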

Assay [2] has as its system giant foxtail (Setaria faberii). Put plainly: Test A postemergence. Particulars: Setaria faberi, post-emergence, 240 h; for pest or weed control at 125 g/ha: 125 g ai/ha. The procedure, abridged: as §1
Assay [3] concerns Kochia (Kochia scoparia). Kind of assay: Test A postemergence. Particulars: Bassia scoparia, post-emergence, 240 h; for pest or weed control at 125 g/ha: 125 g ai/ha. The procedure, abridged: as §1
The subject of assay [4] is Galium (catchweed bedstraw, Galium aparine). Put plainly: Test A postemergence. The settings on record: Galium, post-emergence, 240 h; for pest or weed control at 125 g/ha: 125 g ai/ha. The method, boiled down: as §1
Assay [5] deals with wheat (Triticum aestivum). Put plainly: Test A postemergence. The settings on record: Triticum aestivum, post-emergence, 240 h; for plant injury at 125 g/ha: 125 g ai/ha. The method, boiled down:
as §1

Assay [6] concerns pigweed (Amaranthus retroflexus). Put plainly: Test A preemergence. Particulars: Amaranthus retroflexus, pre-emergence, 240 h, preemergence, read-out: Pigweed plant response rating; for pest or weed control at 125 g/ha: 125 g ai/ha; for pest or weed control at 500 g/ha: 500 g ai/ha.
Assay [7] has as its system giant foxtail (Setaria faberii). Kind of assay: Test A preemergence. Particulars: Setaria faberi, pre-emergence, 240 h, preemergence, read-out: Foxtail, Giant plant response rating; for pest or weed control at 125 g/ha: 125 g ai/ha; for pest or weed control at 500 g/ha: 500 g ai/ha. The procedure, abridged:
as §1

Assay [8] has as its system Kochia (Kochia scoparia). Kind of assay: Test A preemergence. Particulars: Bassia scoparia, pre-emergence, 240 h, preemergence, read-out: Kochia plant response rating; for pest or weed control at 125 g/ha: 125 g ai/ha; for pest or weed control at 500 g/ha: 500 g ai/ha. The procedure, abridged:
as §1

Assay [9] concerns ragweed (common ragweed, Ambrosia elatior). Kind of assay: Test A preemergence. The settings on record: Ambrosia artemisiifolia, pre-emergence, 240 h, preemergence, read-out: Ragweed plant response rating; for pest or weed control at 500 g/ha: 500 g ai/ha. The procedure, abridged:
as §1

In assay [10] the test system is barnyardgrass (Echinochloa crus-galli). Put plainly: Test A preemergence. The settings on record: Echinochloa crus-galli, pre-emergence, 240 h, preemergence, read-out: Barnyardgrass plant response rating; for pest or weed control at 125 g/ha: 125 g ai/ha; for pest or weed control at 500 g/ha: 500 g ai/ha. The method, boiled down:
as §1

Assay [11] has as its system ryegrass, Italian (Italian ryegrass, Lolium multiflorum). Put plainly: Test A preemergence. The settings on record: Lolium multiflorum, pre-emergence, 240 h, preemergence, read-out: Ryegrass, Italian plant response rating; for pest or weed control at 500 g/ha: 500 g ai/ha. The procedure, abridged:
as §1

The subject of assay [12] is sedge, umbrella (small-flower umbrella sedge, Cyperus difformis). Kind of assay: Test B flooded paddy test. The settings on record: Cyperus difformis, 250 g ai/ha, Flood, read-out: Sedge, Umbrella plant response rating. The method, boiled down: (§2)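 Flooding to 3 cm over soil accompanied treatment, which consisted of adding compound to the standing water around 2-leaf plants; depth was then maintained. Visual assessment versus controls followed at 13 to 15 d (scale 0–100, 0 meaning no effect).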

Another assay has as its system rice (Oryra sativa). Kind of assay: Test B flooded paddy test. The settings on record: Oryza sativa, 250 g ai/ha, Flood, read-out: Rice plant response rating. The procedure, abridged: as §2
Assay [13] concerns ducksalad (Heteranthera limosa). Put plainly: Test B flooded paddy test. The settings on record: Heteranthera limosa, 250 g ai/ha, Flood, read-out: Ducksalad plant response rating. The procedure, abridged:
as §2

Assay [14] relates to barnyardgrass (Echinochloa crus-galli). Kind of assay: Test B flooded paddy test. The settings on record: Echinochloa crus-galli, 250 g ai/ha, Flood, read-out: Barnyardgrass plant response rating. The method, boiled down:
as §2

Setting [15] is: visual injury rating, 0 to 100 scale where 0 is no effect and 100 is complete control, approximately 10 d.
Setting [16] is: 0 to 100 scale where 0 is no effect and 100 is complete control.
[17] abbreviates: 125 g ai/ha, visual injury rating, 0 to 100 scale where 0 is no effect and 100 is complete control, approximately 10 d.
The mark [18] stands for this setting: visual injury rating about 10 d after treatment, 0 to 100 scale (0 no effect, 100 complete control).
Where [19] appears, read: scale of 0 to 100 where 0 is no effect and 100 is complete control.

For `CN1CC[C@H](c2ccc(C(F)(F)F)cc2)[C@@H](C(=O)Nc2ccccc2C(F)(F)F)C1=O` [Compound 1224], the pest or weed control at 125 g/ha in assay [1] (postemergence, visual injury vs untreated controls after approx. 10 d, 0 = no effect, 100 = complete control, read-out: Pigweed plant response rating (0 to 100 scale)) was found to be 0%; in assay [2] (postemergence, visual injury vs untreated controls after approx. 10 d, 0 = no effect, 100 = complete control, read-out: Foxtail, Giant plant response rating (0 to 100 scale)) it was 30%; in the assay with Kochia (Kochia scoparia) [3] (postemergence, visual injury vs untreated controls after approx. 10 d, 0 = no effect, 100 = complete control, read-out: Kochia plant response rating (0 to 100 scale)), 0%; in [4] (postemergence, visual injury vs untreated controls after approx. 10 d, 0 = no effect, 100 = complete control, read-out: Galium plant response rating (0 to 100 scale)) it was 0%; in assay [6] (setting [15]) it was 50%; in assay [7] (setting [15]), 80%. The pest or weed control at 125 g/ha worked out at 0% in the assay with Kochia (Kochia scoparia) [8] (setting [15]), 0% in assay [9] (setting [17]), 40% in assay [10] (setting [15]) and 0% in assay [11] (setting [17]). Besides, the pest or weed control at 500 g/ha is 20% in assay [1] (500 g ai/ha, postemergence, 0 to 100 scale, 0 is no effect, 100 is complete control, read-out: Pigweed plant response rating); 70% in assay [2] (500 g ai/ha, postemergence, 0 to 100 scale, 0 is no effect, 100 is complete control, read-out: Foxtail, Giant plant response rating); 0% in the assay on Kochia (Kochia scoparia) [3] (500 g ai/ha, postemergence, 0 to 100 scale, 0 is no effect, 100 is complete control, read-out: Kochia plant response rating); 40% in assay [4] (500 g ai/ha, postemergence, 0 to 100 scale, 0 is no effect, 100 is complete control, read-out: Galium plant response rating); 70% in assay [6] (setting [16]); 90% in assay [7] (setting [16]). Also, the pest or weed control at 500 g/ha with Kochia (Kochia scoparia) [8] (setting [16]) came to 0%; in [9] (setting [16]), 20%; in assay [10] (setting [16]), 80%; in assay [11] (setting [16]), 20%. The plant injury at 125 g/ha in assay [5] (postemergence, visual injury vs untreated controls after approx. 10 d, 0 = no effect, 100 = complete control, read-out: Wheat plant response rating (0 to 100 scale)) is 0%. The plant injury at 500 g/ha in [5] (500 g ai/ha, postemergence, 0 to 100 scale, 0 is no effect, 100 is complete control, read-out: Wheat plant response rating) was 0%. For the same compound, the pest or weed control at 250 g/ha in assay [12] (setting [16]) turned out to be 0%; with rice (Oryra sativa) (setting [16]), 0%; in assay [13] (setting [16]) it was 70%; in assay [14] (setting [16]) it was 0%.
In the case of `CCc1ccccc1NC(=O)[C@H]1C(=O)N(C)C[C@@H]1c1ccc(C(F)(F)F)cc1` [Compound 935], the pest or weed control at 125 g/ha worked out at 20% in assay [1] (Postemergence, visual injury after approximately 10 d, 0 to 100 scale where 0 is no effect and 100 is complete control, read-out: Plant response rating, Pigweed); 90% in assay [2] (Postemergence, visual injury after approximately 10 d, 0 to 100 scale where 0 is no effect and 100 is complete control, read-out: Plant response rating, Foxtail, Giant); 30% in the assay with Kochia (Kochia scoparia) [3] (Postemergence, visual injury after approximately 10 d, 0 to 100 scale where 0 is no effect and 100 is complete control, read-out: Plant response rating, Kochia); 40% in assay [4] (Postemergence, visual injury after approximately 10 d, 0 to 100 scale where 0 is no effect and 100 is complete control, read-out: Plant response rating, Galium); 20% in assay [6] (setting [16]); 90% in assay [7] (setting [16]). For the same compound, the pest or weed control at 125 g/ha (with Kochia (Kochia scoparia) [8] (setting [16]); in assay [10] (setting [16])) was 70% throughout. The plant injury at 125 g/ha in assay [5] (Postemergence, visual injury after approximately 10 d, 0 to 100 scale where 0 is no effect and 100 is complete control, read-out: Plant response rating, Wheat) worked out at 30%. The pest or weed control at 500 g/ha in assay [6] (setting [18]) was 20%; in assay [7] (setting [18]), 90%; with Kochia (Kochia scoparia) [8] (setting [18]) it was 80%; in assay [9] (setting [18]), 30%; in assay [10] (setting [18]), 90%; in assay [11] (setting [18]), 50%. Besides, the pest or weed control at 250 g/ha in assay [12] (setting [19]) stood at 0%; in the assay with rice (Oryra sativa) (setting [19]), 0%; in [13] (setting [19]) it was 70%; in [14] (setting [19]), 0%.
